Measured values from US9744119B2, “Cosmetic composition and method of preparation” (Momentive Performance Materials Inc., priority 2014, dated 2017).

Experiment: Differential scanning calorimetry (DSC) of niacinamide and its 2% blends with silicones
Assay type: physicochemical
Procedure: To further understand the difference in interaction between ionically modified silicone and control/Silsoft silicone gel, differential scanning calorimetry (DSC) studies were carried out on pure active-niacinamide, and its blends with silsoft silicone and ionically modified silicone. 2% Niacinamide blends were prepared by thoroughly mixing Niacinamide with above silicones using spatula followed by high-speed mixing in Flack-Tek for 5 minutes. The free Niacinamide and Niacinamide loaded Silsoft silicone gel and ionically modified silicone were subjected to a heating and cooling cycle under nitrogen atmosphere. The DSC thermograms are show in FIG. 2.

ΔH (heat change associated with the melting of Niacinamide) (nitrogen atmosphere): 218.7 J/g | % Crystallinity (crystalline Niacinamide) (relative to pure niacinamide): 100%
Compound: NC(=O)c1cccnc1 [Niacinamide, niacinamide]
